Source: patent publication US9212138B2, “Use of derivatives of indoles for the treatment of cancer” (CENTRE NATIONAL DE LA RECHERCHE SCIENTIFIQUE, priority 2009, dated 2015)
Like-named read-outs stand apart in the source and are kept apart here.

Columns and labels:
[1] = Activity of side products, test not stated; conditions: side product of the synthesis
[2] = molecular target: T1, MKLP-2 (RabK6) (Homo sapiens, UniProt O95235, S2A); test: biochemical
T1 construct: Expression clones for MKLP-21-519 (coding for residues 1 to 519) were obtained as follows; His-tag; made in house; host or cells: E. coli BL21(DE3)
T1 sequence (O95235 1-519 S2A limits assumed): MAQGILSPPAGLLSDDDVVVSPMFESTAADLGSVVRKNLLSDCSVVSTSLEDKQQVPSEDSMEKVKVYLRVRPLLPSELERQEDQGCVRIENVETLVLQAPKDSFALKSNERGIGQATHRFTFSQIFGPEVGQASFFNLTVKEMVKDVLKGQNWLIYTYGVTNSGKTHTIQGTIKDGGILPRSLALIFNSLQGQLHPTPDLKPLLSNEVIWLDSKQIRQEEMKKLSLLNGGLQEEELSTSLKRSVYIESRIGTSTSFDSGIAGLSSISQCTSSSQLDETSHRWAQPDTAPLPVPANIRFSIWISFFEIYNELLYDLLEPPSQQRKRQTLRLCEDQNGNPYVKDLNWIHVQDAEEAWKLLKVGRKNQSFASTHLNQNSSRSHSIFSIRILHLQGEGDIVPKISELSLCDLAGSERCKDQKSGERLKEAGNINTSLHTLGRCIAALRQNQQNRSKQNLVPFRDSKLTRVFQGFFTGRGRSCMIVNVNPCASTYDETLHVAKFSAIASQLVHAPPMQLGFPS
Protocol: All experiments were performed at room temperature using a 96-well Sunrise photometer (Tecan, Maennedorf, Switzerland) at a final volume of 100 μl per well.
Steady-state ATPase rates were measured using the pyruvate kinase/lactate dehydrogenase-linked assay in buffer A25A (25 mM potassium ACES, pH 6.9, 2 mM MgAc2, 2 mM Na-EGTA, 0.1 mM Na-EDTA, 1 mM β-mercaptoethanol) supplemented with 1 mM MgATP; 2 mM PEP; 0.25 mM NADH; 3-10 μg/ml pyruvate kinase; 3 μg/ml lactate dehydrogenase and 8 μM taxol.
The data were analyzed using Kaleidagraph 3.0 (Synergy Software, Reading, Pa.) and Microsoft Excel to obtain the kinetic variables.
When necessary, the inhibitor concentrations were adapted depending on the initial IC50 value. Experiments were performed in triplicate and averaged data points are shown with error bars±SD.

Compound	IC50 [2]	further results
NC(=O)/C(=C/c1cccnc1)c1c[nH]c2ccccc12		activity [1]: no activity
CCOc1ccncc1/C=C(\C#N)c1c[nH]c2ccc(OC)cc12 [Example 47b]		activity [1]: no activity
COc1ccc2[nH]cc(/C(C#N)=C/c3ccsc3)c2c1 [Example 50, (Z)-2-(5-methoxy-1H-indol-3-yl)-3-thiophen-3-yl-acrylonitrile]	> 50 µM	
CCCc1nc2c(ccc3[nH]cc(/C(C#N)=C/c4cccnc4)c32)o1 [Example 34, (Z)-2-(2-propyl-6H-oxazolo[4,5-e]indol-8-yl)-3-(pyridin-3-yl)acrylonitrile]	> 50 µM	
COc1ccc2c(/C(C#N)=C/c3cccnc3)c[nH]c2c1 [Example 26, (Z)-2-(6-methoxy-1H-indol-3-yl)-3-pyridin-3-yl-acrylonitrile]	5 to 10 µM	
N#C/C(=C\c1cccc([N+](=O)[O-])c1)c1c[nH]c2ccccc12 [Example 42, (Z)-2-(1H-indol-3-yl)-3-(3-nitro-phenyl)-acrylonitrile]	> 50 µM	
COc1ccc2[nH]cc(/C(C#N)=C/c3cncnc3)c2c1 [Example 16, (Z)-2-(5-methoxy-1H-indol-3-yl)-3-pyrimidin-5-yl-acrylonitrile]		IC50 ([2]; basal ATPase activity, absence of MTs, read-out: RabK6 basal IC50 X): 5 to 10 µM
